Experimental data published in patent publication EP4613738A1, “LIPID HAVING AMIDE AND ESTER FUNCTIONAL GROUPS, AND METHOD FOR PRODUCING SAME” (Samyang Holdings Corporation, priority 2022, dated 2024).

What was measured:
mRNA = mRNA encapsulation efficiency of the prepared formulation by Ribo-green assay; type: physicochemical; conditions: lipid compound:DMG-PEG:DSPC:Cholesterol=50:1.5:10:38.5, N/P ratio 10, buffer exchanged to PBS
Method: (§1) The required amounts of the raw materials were mixed in order to meet the N/P ratio (amine group of lipid/phosphate group of mRNA) of 10 and each compound of formulas A to V:DMG-PEG:DSPC:Cholesterol=50:1.5:10:38.5. Ethanol was added to the ethanol layer so that the molecular total of all raw materials was within 12.5 mM, and the aqueous phase and ethanol phase were mixed maintaining a volume ratio of 3:1. After the mixing, to reduce the total ethanol content, buffer exchange was performed as follows: The mixture solution was concentrated by centrifugation at 4,000 rpm to 1/3 using an Amicon-Ultra tube filter (Merk Millipore, UFC505096 or UFC805024, pore size: 50K, volume: 0.5 mL or 4 mL), then diluted with three times the volume of PBS and centrifuged to concentrate. This process was repeated six times to exchange the buffer.
(§2) The more concrete procedure is as follows: • 1) Two autoclaved tubes were prepared (tubes (A) and (B)). • 2) In tube (A), each compound of formulas A to V, DSPC, cholesterol and DMG-PEG in molar quantities calculated according to the experimental conditions were sequentially added and mixed by vortexing. • 3) In the ethanol phase, when necessary, ethanol was added so that the molecular total of all raw materials was within 12.5 mM. • 4) In tube (B), mRNA and 20 mM sodium acetate buffer (pH 4.6) (=prepared by diluting with 3M sodium acetate buffer to 20 mM and titrating to pH 4.6 using 1M HCl) were mixed. At that time, the ratio was calculated and added so that the aqueous phase was total three times the amount of the ethanol phase. • 5) Mixing of Tube (A) and Tube (B) was performed using a Microfluidics (Ignite, Precision Nanosystem) device. Microfluidics operating conditions were FRR (Flow Rate Ratio) of C:R=3:1 and TRR (Total Flow Rate) of 12 mL/min. • 6) The resulting mixture from step 5) was concentrated by centrifugation at 4,000 rpm to 1/3 using an Amicon-Ultra tube filter (50K), then diluted 3-fold with PBS and concentrated by centrifugation. This process was repeated 6 times for concentration to the desired volume.
(§3) • 1) For the prepared formulation, particle characteristics (i.e., Zeta-average particle size (Z-average), polydispersity index (PDI), and zeta-potential) were confirmed using a particle size analyzer (Dynamic Light Scattering, DLS), and the results are shown in Table 1 below. • 2) For the prepared formulation, mRNA encapsulation efficiency was confirmed through Ribo-green assay, and the results are shown in Table 1 below.

[1] = Particle characteristics of the prepared formulation by particle size analyzer (Dynamic Light Scattering, DLS); type: physicochemical; conditions: mRNA formulation; lipid compound:DMG-PEG:DSPC:Cholesterol=50:1.5:10:38.5; N/P ratio 10; buffer exchanged to PBS
Method: as §1, §2, §3

Encapsulation efficiency (mRNA) [%] | PDI (PI) [1] | Z-average [1] [nm] | Zeta-potential [1] [mV] | Structure (SMILES)
> 93.75 | 0.231 ± 0.012 | 147.8 ± 0.979 | -7.87 ± 0.754 | CCCCCCC(CCCC)COC(=O)CCCCCNC(=O)CCN(C)CCCN(C)CCC(=O)NCCCCCC(=O)OCC(CCCC)CCCCCC (centres unmarked) [Example 4]
> 96.9 | 0.156 ± 0.009 | 137.5 ± 1.364 | -6.66 ± 0.365 | CCCCCCC(CCCCCC)COC(=O)CCCCCNC(=O)CCN(C)CCCN(C)CCC(=O)NCCCCCC(=O)OCC(CCCCCC)CCCCCC [Example 5]
> 87.5 | 0.190 ± 0.011 | 125.9 ± 1.325 | -6.02 ± 2.949 | CCCCOC(=O)CCCCCNC(=O)CCN(C)CCCN(C)CCC(=O)NCCCCCC(=O)OCCCC [Example 6]
> 93.75 | 0.215 ± 0.018 | 118.6 ± 2.099 | 2.04 ± 0.365 | CCCCCCCCCCC(CCCCCCCC)COC(=O)CCCCCNC(=O)CCN(C)CCCN(C)CCC(=O)NCCCCCC(=O)OCC(CCCCCCCC)CCCCCCCCCC (centres unmarked) [Example 7]
> 99.2 | 0.188 ± 0.007 | 110.3 ± 1.700 | 4.83 ± 0.301 | CCCCCCC(CCCCCC)COC(=O)CCCCCCCNC(=O)CCN(C)CCCN(C)CCC(=O)NCCCCCCCC(=O)OCC(CCCCCC)CCCCCC [Example 8]
> 94.1 | 0.171 ± 0.006 | 118.2 ± 1.473 | 6.72 ± 0.073 | CCCCCCCCC(CCCCCC)COC(=O)CCCCCNC(=O)CCN(C)CCCN(C)CCC(=O)NCCCCCC(=O)OCC(CCCCCC)CCCCCCCC (centres unmarked) [Example 10]
> 93.75 | 0.166 ± 0.027 | 113.8 ± 0.502 | -10.39 ± 1.994 | CCCCCCCCCCC(CCCCCCCC)COC(=O)CCCCCNC(=O)CCN(CCN)CCC(=O)NCCCCCC(=O)OCC(CCCCCCCC)CCCCCCCCCC (centres unmarked) [Example 14]
> 93.75 | 0.186 ± 0.015 | 127.0 ± 0.325 | -0.40 ± 0.239 | CCCCCCC(CCCCCC)COC(=O)CCCCCCCNC(=O)CCN(CCN)CCC(=O)NCCCCCCCC(=O)OCC(CCCCCC)CCCCCC [Example 15]
> 93.75 | 0.128 ± 0.015 | 128.9 ± 4.714 | 0.50 ± 3.461 | CCCCCCCCCCCCC(CCCCCCCCCC)COC(=O)CCCCCNC(=O)CCN(CCN)CCC(=O)NCCCCCC(=O)OCC(CCCCCCCCCC)CCCCCCCCCCCC (centres unmarked) [Example 16]
> 93.75 | 0.167 ± 0.009 | 127.3 ± 0.955 | 17.22 ± 3.314 | CCCCCCCCCOC(=O)CCCCCNC(=O)CCN(CCCN(C)C)CCC(=O)NCCCCCC(=O)OCCCCCCCCC [Example 17]
> 93.75 | 0.199 ± 0.007 | 118.6 ± 0.565 | 10.96 ± 1.293 | CCCCCCCCC(CCCCCC)COC(=O)CCCCCNC(=O)CCN(CCCN(C)C)CCC(=O)NCCCCCC(=O)OCC(CCCCCC)CCCCCCCC (centres unmarked) [Example 18]
> 93.75 | 0.150 ± 0.022 | 146.7 ± 1.226 | -9.39 ± 0.137 | CCCCCCCCC(CCCCCC)COC(=O)CCCCCNC(=O)CCN(CCC(=O)NCCCCCC(=O)OCC(CCCCCC)CCCCCCCC)CCN1CCOCC1 (centres unmarked) [Example 19]
> 93.50 | 0.350 ± 0.009 | 120.0 ± 4.251 | 4.43 ± 0.746 | CCCCC/C=C\C/C=C\CCCCCCCCOC(=O)CCCCCNC(=O)CCN(C)CCCN(C)CCC(=O)NCCCCCC(=O)OCCCCCCCC/C=C\C/C=C\CCCCC [Example 21]
> 93.20 | 0.3042 ± 0.026 | 121.0 ± 4.06 | 3.56 ± 3.67 | CCCCCCCCC(OC(=O)CCCCCNC(=O)CCN(C)CCCN(C)CCC(=O)NCCCCCC(=O)OC(CCCCCCCC)C1CC1)C1CC1 (centres unmarked) [Example 22]
